Reference: patent US20260365682A1, “MODULATORS OF TNF-ALPHA ACTIVITY” (Forward Therapeutics, Inc., priority 2022, published 2026)
Read-outs that look alike come from different tables or passages of the source.

Target: T1, TNF-α (Homo sapiens, UniProt P01375)
T1 construct: purchased R&D 210-TA-020/CF
Test: TNF-α Induced HEK Blue Cellular Assay (secreted alkaline phosphatase expression, QUANTI-Blue)
Type: cell-based
Details: HEK Blue TNFα reporter cells, TNF-α 100 μg/ml, 24 hrs at 37° C., inhibition of secreted alkaline phosphatase
Method in brief: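 Compound was serially diluted from […] to 0.5 nM final, then incubated with 10,000 HEK Blue TNFα reporter cells per well and […] TNF-α for 24 h at 37° C. SEAP output was read by QUANTI-Blue absorbance at 620 nm. Inhibition was background-corrected against DMSO controls with and without stimulation, and IC50 was fitted with a 4-parameter logistic equation.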

T1 sequence (P01375 77-233 limits assumed): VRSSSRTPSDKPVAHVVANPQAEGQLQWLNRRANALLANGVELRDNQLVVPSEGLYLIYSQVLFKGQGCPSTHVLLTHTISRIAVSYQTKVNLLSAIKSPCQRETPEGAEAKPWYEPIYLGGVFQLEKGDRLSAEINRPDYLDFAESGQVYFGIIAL

Compound | IC50 (read-out: IC50 value) [µM] | IC50 (IC50 value) [µM]
[2H]C([2H])([2H])N1C(=O)c2cccc(OC(F)F)c2[C@H]2C[C@@H]1c1nc3ccc(C#CC(=O)OC(C)C)cc3n12 [Example 38, isopropyl 3-((7R,14R)-1-(difluoromethoxy)-6-(methyl-d3)-5-oxo-5,6,7,14-tetrahydro-7,14-methanobenzo[f]benzo[4,5]imidazo[1,2-a][1,4]diazocin-11-yl)propiolate] | – | < 0.1
[2H]C([2H])([2H])N1C(=O)c2cccc(OC(F)F)c2[C@H]2C[C@@H]1c1nc3ccc(C#Cc4cnc(C(F)(F)F)nc4)cc3n12 [Example 23, (7R,14R)-1-(difluoromethoxy)-6-(methyl-d3)-11-((2-(trifluoromethyl)pyrimidin-5-yl)ethynyl)-6,7-dihydro-7,14-methanobenzo[f]benzo[4,5]imidazo[1,2-a][1,4]diazocin-5(14H)-one] | 0.1 to 1 | –
[2H]C([2H])([2H])N1C(=O)c2cccc(OC(F)F)c2[C@H]2C[C@@H]1c1nc3ccc(C#Cc4nncn4C)cc3n12 [Example 25, (7R,14R)-1-(difluoromethoxy)-6-(methyl-d3)-11-((4-methyl-4H-1,2,4-triazol-3-yl)ethynyl)-6,7-dihydro-7,14-methanobenzo[f]benzo[4,5]imidazo[1,2-a][1,4]diazocin-5(14H)-one] | 1 to 10 | –

Continued, values first:

IC50 (read-out: IC50 value) [µM] | IC50 (IC50 value) [µM] | Compound
< 0.1 | – | [2H]C([2H])([2H])N1C(=O)c2cccc(OC(F)F)c2[C@H]2C[C@@H]1c1nc3ccc(C#CC4(C)CN(S(C)(=O)=O)C4)cc3n12 [Example 162, (7R,14R)-1-(difluoromethoxy)-6-(methyl-d3)-11-((3-methyl-1-(methylsulfonyl)azetidin-3-yl)ethynyl)-6,7-dihydro-7,14-methanobenzo[f]benzo[4,5]imidazo[1,2-a][1,4]diazocin-5(14H)-one]
0.1 to 1 | – | [2H]C([2H])([2H])N1C(=O)c2cccc(OC(F)F)c2[C@H]2C[C@@H]1c1nc3ccc(C#CC4CN(C5CC5)C4)cc3n12 [Example 223, (7R,14R)-11-((1-cyclopropylazetidin-3-yl)ethynyl)-1-(difluoromethoxy)-6-(methyl-d3)-6,7-dihydro-7,14-methanobenzo[f]benzo[4,5]imidazo[1,2-a][1,4]diazocin-5(14H)-one]
< 0.1 | – | [2H]C([2H])([2H])N1C(=O)c2cccc(OC(F)F)c2[C@H]2C[C@@H]1c1nc3ccc(C#CC)c(F)c3n12 [Example 170, (7R,14R)-1-(difluoromethoxy)-12-fluoro-6-(methyl-d3)-11-(prop-1-yn-1-yl)-6,7-dihydro-7,14-methanobenzo[f]benzo[4,5]imidazo[1,2-a][1,4]diazocin-5(14H)-one]
